The record followed here is US20230157950A1, “OROMUCOSAL FILM COMPOSITIONS COMPRISING EPINEPHRINE PARTICLES” (ReForm Therapeutics Ltd., priority 2021, published 2023).

For the data set the following is noted: acetone, ethanol, methanol, isopropyl alcohol, alkaline water-based solvents, 25° C. and 45° C.

As to `CNC[C@H](O)c1ccc(O)c(O)c1` [Epinephrine base particles, Epinephrine base], the “time for which size and structure of epinephrine particles is maintained in solvents/dispersants” value was “at least 6 hours”. In addition, for the setting “up to 6 hours, SEM”, the “solubility of epinephrine particles in the selected solvents/dispersants” value is given as “none or very limited solubility”.
